These results are taken from US7462741B2, “Naphthalene compounds” (Les Laboratoires Servier, priority 2006, dated 2008).

Usually Ki stands for the equilibrium dissociation constant of an inhibitor or competing ligand from its target.

One experiment deals with MT1 receptor (Homo sapiens, UniProt P48039). Description: Melatonin MT1 receptor binding study. Conditions: 2-[125I]-iodomelatonin radioligand, competitive binding in triplicate. How it is done:
(§1) The MT1 or MT2 receptor binding experiments are carried out using 2-[^125I]-iodomelatonin as reference radioligand. The radioactivity retained is determined using a liquid scintillation counter.
(§2) Competitive binding experiments are then carried out in triplicate using the various test compounds. A range of different concentrations is tested for each compound. The results enable the binding affinities of the compounds tested (Ki) to be determined.

The target in another experiment is T1, MT2 receptor (Homo sapiens, UniProt P49286).
T1 sequence (P49286 1-362): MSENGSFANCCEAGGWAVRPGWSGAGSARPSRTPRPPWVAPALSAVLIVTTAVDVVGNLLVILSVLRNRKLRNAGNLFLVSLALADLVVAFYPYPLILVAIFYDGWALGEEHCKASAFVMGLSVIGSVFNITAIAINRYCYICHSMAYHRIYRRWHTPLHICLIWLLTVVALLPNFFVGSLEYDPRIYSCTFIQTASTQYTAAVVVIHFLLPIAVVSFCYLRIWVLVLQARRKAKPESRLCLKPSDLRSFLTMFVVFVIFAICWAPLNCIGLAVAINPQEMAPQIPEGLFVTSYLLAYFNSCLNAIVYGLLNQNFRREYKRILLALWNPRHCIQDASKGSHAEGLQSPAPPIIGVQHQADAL
Description: Melatonin MT2 receptor binding study. As to conditions: 2-[125I]-iodomelatonin radioligand, competitive binding in triplicate. The method, then: as §1, §2

The structures appear in SMILES notation.

MT1 receptor, sequence (P48039 whole entry): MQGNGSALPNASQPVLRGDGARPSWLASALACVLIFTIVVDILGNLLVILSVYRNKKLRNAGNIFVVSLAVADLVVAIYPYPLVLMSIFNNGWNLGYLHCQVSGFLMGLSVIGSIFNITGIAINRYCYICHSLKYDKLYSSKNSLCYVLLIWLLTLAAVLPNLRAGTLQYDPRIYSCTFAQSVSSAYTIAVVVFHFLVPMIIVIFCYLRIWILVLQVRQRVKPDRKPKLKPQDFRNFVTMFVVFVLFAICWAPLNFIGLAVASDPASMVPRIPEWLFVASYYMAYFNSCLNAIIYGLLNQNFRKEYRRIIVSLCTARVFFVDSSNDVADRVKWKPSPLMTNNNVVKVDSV

As to `CCC(=O)NCC(CO)c1cccc2ccc(OC)cc12` (centres unmarked) [Example 1, N-[3-Hydroxy-2-(7-methoxy-1-naphthyl)propyl]propanamide], the inhibition constant (Ki) was determined as 1.4 nM on MT1 receptor and 3.2 nM at MT2 receptor.
